Measurements published in EP2776398B1, “SUBSTITUTED PYRAZOLYL-BASED UREA DERIVATIVES AS VANILLOID RECEPTOR LIGANDS” (Medifron DBT Inc., priority 2011, dated 2013).

Molecular target: T1, vanilloid receptor 1 (VR1/TRPV1 receptor) (Homo sapiens, UniProt Q8NER1)
T1 construct: expressed in transfected cells; host or cells: CHO K1 cells (ECACC), stably transfected
Assay: Functional testing on vanilloid receptor 1: FLIPR Ca2+ influx assay against capsaicin (Cap) in transfected CHO K1 cells (pharmacological method II); on Ki: 100 nM capsaicin
Assay type: cell-based
Design: key to (f) Ki (human being) [nM] Cap: agonist classification: AG = agonist
Conditions: @ 1µM; human VR1 in CHO K1 cells; capsaicin; relative to maximum inhibition with 10 µM capsazepine; read-out: inhibition (as a percentage), printed in column (f) Ki (human being) [nM] Cap
Text: […]

T1 sequence (Q8NER1 whole entry): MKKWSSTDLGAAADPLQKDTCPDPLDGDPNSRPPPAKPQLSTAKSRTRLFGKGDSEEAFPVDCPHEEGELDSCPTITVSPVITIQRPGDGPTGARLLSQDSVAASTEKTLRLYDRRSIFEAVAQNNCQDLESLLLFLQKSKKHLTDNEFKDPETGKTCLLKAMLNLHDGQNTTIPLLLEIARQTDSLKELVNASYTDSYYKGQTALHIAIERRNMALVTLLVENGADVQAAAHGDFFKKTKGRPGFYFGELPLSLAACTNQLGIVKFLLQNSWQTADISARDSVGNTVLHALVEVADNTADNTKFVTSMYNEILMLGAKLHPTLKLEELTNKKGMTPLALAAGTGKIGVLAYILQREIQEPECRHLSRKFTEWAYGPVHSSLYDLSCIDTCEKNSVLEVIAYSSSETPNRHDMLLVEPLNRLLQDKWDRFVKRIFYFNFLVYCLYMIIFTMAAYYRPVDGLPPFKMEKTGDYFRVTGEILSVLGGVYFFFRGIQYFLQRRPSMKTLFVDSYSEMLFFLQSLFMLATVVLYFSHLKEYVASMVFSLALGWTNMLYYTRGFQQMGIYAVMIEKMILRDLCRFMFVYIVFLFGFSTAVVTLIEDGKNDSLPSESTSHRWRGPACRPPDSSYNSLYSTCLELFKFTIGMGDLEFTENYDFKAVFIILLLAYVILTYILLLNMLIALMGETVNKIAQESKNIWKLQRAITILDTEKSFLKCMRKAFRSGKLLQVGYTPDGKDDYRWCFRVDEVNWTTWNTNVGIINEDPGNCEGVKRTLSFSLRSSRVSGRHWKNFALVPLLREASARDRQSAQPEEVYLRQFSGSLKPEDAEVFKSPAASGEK

Row | Structure (SMILES) | inhibition at 1 µM [%]
1 | O=C(NCc1cc(C(F)(F)F)nn1-c1cccc(F)c1)Nc1ccc(OCC(O)CO)cc1 (stereo not shown) [A26, 1-[4-(2,3-Dihydroxy-propoxy)-phenyl]-3-[[2-(3-fluorophenyl)-5-(trifluoromethyl)-2H-pyrazol-3-yl]-methyl]-urea] | 34

Same assay, conditions: human VR1 in CHO K1 cells; AG printed instead of a Ki

Row | Structure (SMILES) | (f) Ki (human being) [nM] Cap: agonist classification
2 | COc1c(F)cc(C(C)C(=O)NCc2cc(C(C)(C)C)nn2-c2ccc(F)c(Cl)c2)cc1F (stereo not shown) [A5, N-[[5-tert-Butyl-2-(3-chloro-4-fluoro-phenyl)-2H-pyrazol-3-yl]-methyl]-2-(3,5-difluoro-4-methoxy-phenyl)-propionamide] | AG
3 | CC(C)(C)c1cc(CNC(=O)Nc2cc(F)c(O)c(F)c2)n(-c2cccc(Cl)c2)n1 [A11, 1-[[5-tert-Butyl-2-(3-chlorophenyl)-2H-pyrazol-3-yl]-methyl]-3-(3,5-difluoro-4-hydroxy-phenyl)-urea] | AG
4 | COc1ccc(NC(=O)NCc2cc(C(C)(C)C)nn2-c2cccc(Cl)c2)cc1OC [A13, 1-[[5-tert-Butyl-2-(3-chlorophenyl)-2H-pyrazol-3-yl]-methyl]-3-(3,4-dimethoxyphenyl)-urea] | AG
5 | COc1cc(NC(=O)NCc2cc(C(F)(F)F)nn2-c2cccc(Cl)c2)ccc1O [A15, 1-[[2-(3-Chlorophenyl)-5-(trifluoromethyl)-2H-pyrazol-3-yl]-methyl]-3-(4-hydroxy-3-methoxy-phenyl)-urea] | AG
6 | COc1ccc(NC(=O)NCc2cc(C(F)(F)F)nn2-c2cccc(Cl)c2)cc1O [A16, 1-[[2-(3-Chlorophenyl)-5-(trifluoromethyl)-2H-pyrazol-3-yl]-methyl]-3-(3-hydroxy-4-methoxy-phenyl)-urea] | AG
7 | COCCOc1ccc(NC(=O)NCc2cc(C(C)(C)C)nn2-c2cccc(Cl)c2)cc1F [A17, 1-[[5-tert-Butyl-2-(3-chlorophenyl)-2H-pyrazol-3-yl]-methyl]-3-[3-fluoro-4-(2-methoxy-ethoxy)-phenyl]-urea] | AG
8 | CC(C)(C)c1cc(CNC(=O)Nc2ccc(OCC(O)CO)c(F)c2)n(-c2cccc(Cl)c2)n1 (stereo not shown) [A24, 1-[[5-tert-Butyl-2-(3-chlorophenyl)-2H-pyrazol-3-yl]-methyl]-3-[4-(2,3-dihydroxy-propoxy)-3-fluoro-phenyl]-urea] | AG
9 | CC(C(=O)NCc1cc(C(C)(C)C)nn1-c1cccc(Cl)c1)c1ccc(CO)c(F)c1 (stereo not shown) [A32, N-[[5-tert-Butyl-2-(3-chlorophenyl)-2H-pyrazol-3-yl]-methyl]-2-[3-fluoro-4-(hydroxymethyl)-phenyl]-propionamide] | AG

Same assay, conditions: read-out: (f) Ki (human being) [nM] Cap

Row | Structure (SMILES) | Ki [nM]
10 | COc1c(F)cc(CC(=O)NCc2cc(C(C)(C)C)nn2-c2cccc(Cl)c2)cc1F [A1, N-[[5-tert-Butyl-2-(3-chlorophenyl)-2H-pyrazol-3-yl]-methyl]-2-(3,5-difluoro-4-methoxy-phenyl)-acetamide] | 12
11 | COc1c(F)cc(CC(=O)NCc2cc(C(F)(F)F)nn2-c2cccc(Cl)c2)cc1F [A2, N-[[2-(3-Chlorophenyl)-5-(trifluoromethyl)-2H-pyrazol-3-yl]-methyl]-2-(3,5-difluoro-4-methoxy-phenyl)-acetamide] | 33
12 | COc1c(F)cc(C(C)C(=O)NCc2cc(C3CC3)nn2-c2cccc(Cl)c2)cc1F (stereo not shown) [A3, N-[[2-(3-Chlorophenyl)-5-cyclopropyl-2H-pyrazol-3-yl]-methyl]-2-(3,5-difluoro-4-methoxy-phenyl)-propionamide] | 6
13 | COc1c(F)cc(C(C)C(=O)NCc2cc(C(C)(C)C)nn2-c2cccc(Cl)c2)cc1F (stereo not shown) [A4, N-[[5-tert-Butyl-2-(3-chlorophenyl)-2H-pyrazol-3-yl]-methyl]-2-(3,5-difluoro-4-methoxy-phenyl)-propionamide] | 2
14 | COc1c(F)cc(CC(=O)NCc2cc(C(C)(C)C)nn2-c2ccc(F)c(Cl)c2)cc1F [A6, N-[[5-tert-Butyl-2-(3-chloro-4-fluoro-phenyl)-2H-pyrazol-3-yl]-methyl]-2-(3,5-difluoro-4-methoxy-phenyl)-acetamide] | 14
15 | COc1c(F)cc(CC(=O)NCc2cc(C(F)(F)F)nn2-c2ccc(F)c(Cl)c2)cc1F [A7, N-[[2-(3-Chloro-4-fluoro-phenyl)-5-(trifluoromethyl)-2H-pyrazol-3-yl]-methyl]-2-(3,5-difluoro-4-methoxy-phenyl)-acetamide] | 26
16 | COc1c(F)cc(NC(=O)NCc2cc(C(F)(F)F)nn2-c2cccc(Cl)c2)cc1F [A8, 1-[[2-(3-Chlorophenyl)-5-(trifluoromethyl)-2H-pyrazol-3-yl]-methyl]-3-(3,5-difluoro-4-methoxy-phenyl)-urea] | 55
17 | COc1c(F)cc(C(C)C(=O)NCc2cc(C(F)(F)F)nn2-c2ccc(F)c(Cl)c2)cc1F (stereo not shown) [A9, N-[[2-(3-Chloro-4-fluoro-phenyl)-5-(trifluoromethyl)-2H-pyrazol-3-yl]-methyl]-2-(3,5-difluoro-4-methoxy-phenyl)-propionamide] | 7
18 | CC(C(=O)NCc1cc(C(F)(F)F)nn1-c1cccc(Cl)c1)c1cc(F)c(O)c(F)c1 (stereo not shown) [A10, N-[[2-(3-Chlorophenyl)-5-(trifluoromethyl)-2H-pyrazol-3-yl]-methyl]-2-(3,5-difluoro-4-hydroxy-phenyl)-propionamide] | 1
19 | O=C(NCc1cc(C(F)(F)F)nn1-c1cccc(Cl)c1)Nc1cc(F)c(O)c(F)c1 [A12, 1-[[2-(3-Chlorophenyl)-5-(trifluoromethyl)-2H-pyrazol-3-yl]-methyl]-3-(3,5-difluoro-4-hydroxy-phenyl)-urea] | 8
20 | COc1ccc(NC(=O)NCc2cc(C(F)(F)F)nn2-c2cccc(Cl)c2)cc1OC [A14, 1-[[2-(3-Chlorophenyl)-5-(trifluoromethyl)-2H-pyrazol-3-yl]-methyl]-3-(3,4-dimethoxyphenyl)-urea] | 25
21 | COCCOc1ccc(NC(=O)NCc2cc(C(F)(F)F)nn2-c2cccc(Cl)c2)cc1F [A18, 1-[[2-(3-Chlorophenyl)-5-(trifluoromethyl)-2H-pyrazol-3-yl]-methyl]-3-[3-fluoro-4-(2-methoxy-ethoxy)-phenyl]-urea] | 68
22 | CC(C)(C)c1cc(CNC(=O)Nc2ccc(OCCO)c(F)c2)n(-c2cccc(Cl)c2)n1 [A19, 1-[[5-tert-Butyl-2-(3-chlorophenyl)-2H-pyrazol-3-yl]-methyl]-3-[3-fluoro-4-(2-hydroxy-ethoxy)-phenyl]-urea] | 13
23 | O=C(NCc1cc(C(F)(F)F)nn1-c1cccc(Cl)c1)Nc1ccc(OCCO)c(F)c1 [A20, 1-[[2-(3-Chlorophenyl)-5-(trifluoromethyl)-2H-pyrazol-3-yl]-methyl]-3-[3-fluoro-4-(2-hydroxy-ethoxy)-phenyl]-urea] | 37
24 | O=C(NCc1cc(C(F)(F)F)nn1-c1cccc(F)c1)Nc1ccc(OCCO)c(F)c1 [A21, 1-[3-Fluoro-4-(2-hydroxy-ethoxy)-phenyl]-3-[[2-(3-fluorophenyl)-5-(trifluoromethyl)-2H-pyrazol-3-yl]-methyl]-urea] | 7
25 | O=C(NCc1cc(C(F)(F)F)nn1-c1ccc(F)c(Cl)c1)Nc1ccc(OCCO)c(F)c1 [A22, 1-[[2-(3-Chloro-4-fluoro-phenyl)-5-(trifluoromethyl)-2H-pyrazol-3-yl]-methyl]-3-[3-fluoro-4-(2-hydroxy-ethoxy)-phenyl]-urea] | 40
26 | O=C(NCc1cc(C(F)(F)F)nn1-c1cccc(Cl)c1)Nc1ccc(OCC(O)CO)cc1 (stereo not shown) [A23, 1-[[2-(3-Chlorophenyl)-5-(trifluoromethyl)-2H-pyrazol-3-yl]-methyl]-3-[4-(2,3-dihydroxy-propoxy)-phenyl]-urea] | 35
27 | O=C(NCc1cc(C(F)(F)F)nn1-c1cccc(Cl)c1)Nc1ccc(OCC(O)CO)c(F)c1 (stereo not shown) [A25, 1-[[2-(3-Chlorophenyl)-5-(trifluoromethyl)-2H-pyrazol-3-yl]-methyl]-3-[4-(2,3-dihydroxy-propoxy)-3-fluoro-phenyl]-urea] | 65
28 | CC(C)(C)c1cc(CNC(=O)Nc2ccc(CO)cc2)n(-c2cccc(Cl)c2)n1 [A27, 1-[[5-tert-Butyl-2-(3-chlorophenyl)-2H-pyrazol-3-yl]-methyl]-3-[4-(hydroxymethyl)-phenyl]-urea] | 1
29 | O=C(NCc1cc(C(F)(F)F)nn1-c1cccc(Cl)c1)Nc1ccc(CO)cc1 [A28, 1-[[2-(3-Chlorophenyl)-5-(trifluoromethyl)-2H-pyrazol-3-yl]-methyl]-3-[4-(hydroxymethyl)-phenyl]-urea] | 22
30 | CC(C)(C)c1cc(CNC(=O)Cc2ccc(CO)c(F)c2)n(-c2cccc(Cl)c2)n1 [A29, N-[[5-tert-Butyl-2-(3-chlorophenyl)-2H-pyrazol-3-yl]-methyl]-2-[3-fluoro-4-(hydroxymethyl)-phenyl]-acetamide] | 1
31 | O=C(Cc1ccc(CO)c(F)c1)NCc1cc(C(F)(F)F)nn1-c1cccc(Cl)c1 [A30, N-[[2-(3-Chlorophenyl)-5-(trifluoromethyl)-2H-pyrazol-3-yl]-methyl]-2-[3-fluoro-4-(hydroxymethyl)-phenyl]-acetamide] | 21
32 | CC(C(=O)NCc1cc(C2CC2)nn1-c1cccc(Cl)c1)c1ccc(CO)c(F)c1 (stereo not shown) [A31, N-[[2-(3-Chlorophenyl)-5-cyclopropyl-2H-pyrazol-3-yl]-methyl]-2-[3-fluoro-4-(hydroxymethyl)-phenyl]-propionamide] | 3
33 | CC(C(=O)NCc1cc(C(F)(F)F)nn1-c1cccc(Cl)c1)c1ccc(CO)c(F)c1 (stereo not shown) [A33, N-[[2-(3-Chlorophenyl)-5-(trifluoromethyl)-2H-pyrazol-3-yl]-methyl]-2-[3-fluoro-4-(hydroxymethyl)-phenyl]-propionamide] | 2
34 | C[C@H](C(=O)NCc1cc(C(F)(F)F)nn1-c1cccc(Cl)c1)c1ccc(CO)c(F)c1 [A34, (2S)-N-[[2-(3-Chlorophenyl)-5-(trifluoromethyl)-2H-pyrazol-3-yl]-methyl]-2-[3-fluoro-4-(hydroxymethyl)-phenyl]-propionamide] | 37
